Laboratory results: patent US11166460B2, “α-amino acrylate microbicide, and preparation method therefor and uses thereof” (priority 2017, dated 2021)
In brackets after ≈: the same amount, converted by molar mass. Where two headings read alike, the source gives them in different places.

Columns and labels:
Physalospora piricola = test: Fungicidal activity, fungi growth rate method, PP; format: cell-based; settings: 50 μg/mL
[1] = system: tobacco mosaic virus (TMV); test: Anti-TMV inactivation activity (inactivation mode), compound mixed with TMV before inoculation of tobacco leaves; format: in vivo; settings: Tobacco mosaic virus, read-out: Anti-TMV activity, Inactivation effect (inhibition)
[2] = system: tobacco mosaic virus (TMV); test: Anti-TMV inducing activity (induction mode), tobacco seedlings; format: in vivo; settings: Tobacco mosaic virus, read-out: Anti-TMV activity, Induction effect (inhibition), 100 μg/mL, tobacco seedlings
Sclerotinia sclerotiorum = test: microbe, parasite or virus in culture; format: cell-based; settings: Sclerotinia sclerotiorum; for inhibition at 50 µg/mL: 50 μg/mL; for EC90: read-out: EC90 against S. sclerotiorum in vitro
[3] = system: Phytophthora infestans (Mont) de Bary; test: microbe, parasite or virus in culture; format: cell-based; settings: Phytophthora infestans
Botrytis cinerea = test: Fungicidal activity, fungi growth rate method, BC; format: cell-based; settings: Botrytis cinerea, 50 μg/mL
wheat Gibberella zeae = test: microbe, parasite or virus in culture; format: cell-based; settings: Fusarium graminearum
Rhizoctonia cerealis = test: Fungicidal activity, fungi growth rate method, RC; format: cell-based; settings: Ceratobasidium cereale, 50 μg/mL
Alternaria solani = test: Fungicidal activity, fungi growth rate method, AS; format: cell-based; settings: Alternaria solani, 50 μg/mL
Pellicularia sasakii = test: Fungicidal activity, fungi growth rate method, PS; format: cell-based; settings: 50 μg/mL
Cercospora arachidicola = test: Fungicidal activity, fungi growth rate method, CA; format: cell-based; settings: Mycosphaerella arachidis, 50 μg/mL
[4] = system: tobacco mosaic virus (TMV); test: Anti-TMV curative activity (treatment mode), live friction inoculation on tobacco seedlings; format: in vivo; settings: Tobacco mosaic virus, read-out: Anti-TMV activity, Curative effect (inhibition), 100 μg/mL, tobacco seedlings, checked on seventh day
[5] = system: tobacco mosaic virus (TMV); test: Anti-TMV protective activity (protection mode), live friction inoculation on tobacco seedlings; format: in vivo; settings: Tobacco mosaic virus, read-out: Anti-TMV activity, Protection effect (inhibition)
[6] = read-out: Fungicidal activity, inhibition, PP
[7] = read-out: Fungicidal activity (inhibition) against SS: Sclerotinia sclerotiorum
[8] = read-out: Fungicidal activity, inhibition, SS
[9] = read-out: Fungicidal activity, inhibition, PI
[10] = read-out: Fungicidal activity, inhibition, BC
[11] = read-out: Fungicidal activity, inhibition, GZ
[12] = read-out: Fungicidal activity, inhibition, RC
[13] = read-out: Fungicidal activity, inhibition, AS
[14] = read-out: Fungicidal activity, inhibition, PS
[15] = read-out: Fungicidal activity, inhibition, CA
[16] = read-out: Fungicidal activity (inhibition) against BC: Botrytis cinerea
[17] = read-out: Fungicidal activity (inhibition) against GZ: wheat Gibberella zeae

SMILES | inhibition at 50 µg/mL (Physalospora piricola; [6]) | inhibition at 100 µg/mL [1] | inhibition at 100 µg/mL [2] | inhibition at 50 µg/mL (Sclerotinia sclerotiorum; [7]) | inhibition at 50 µg/mL (Sclerotinia sclerotiorum; [8]) | inhibition at 50 µg/mL [3, 9] | inhibition at 50 µg/mL (Botrytis cinerea; [10]) | inhibition at 50 µg/mL (wheat Gibberella zeae; [11]) | inhibition at 50 µg/mL (Rhizoctonia cerealis; [12]) | inhibition at 50 µg/mL (Alternaria solani; [13]) | inhibition at 50 µg/mL (Pellicularia sasakii; [14]) | inhibition at 50 µg/mL (Cercospora arachidicola; [15]) | melting point | inhibition at 100 µg/mL [4] | inhibition at 100 µg/mL [5] | also measured
O=C(NCc1ccc(Br)cc1)/C(=C/c1ccccc1)NC(=O)C1CC1 [Compound 59, N-[(1Z)-2-phenyl-1-[[(4-bromophenylmethyl)amino]carbonyl]ethenyl]cyclopropanecarboxamide] | 8% | 39% | 26% | 60 to 80% | 75% | 10% | 18% | 16% | 24% | 16% | 19% | 22% | 187 to 189 °C | 80% | 41% | –
O=C(N/C(=C\c1ccccc1)C(=O)N1CCC(O)(c2ccc(Br)cc2)CC1)c1ccccc1[N+](=O)[O-] [Compound 12, (Z)-N-[1-[[4-(4-bromophenyl)-4-hydroxy-1-piperidinyl]carbonyl]-2-phenylethenyl]-2-nitrobenzamide] | 17% | 28% | 0% | 100% | 100% | 10% | 8% | 39% | 14% | 12% | 17% | 16% | 122 to 124 °C | 56% | 23% | EC90 (Sclerotinia sclerotiorum): 192 µg/mL (≈ 348 µM)
O=C(NCc1ccccc1)/C(=C/c1ccccc1)NC(=O)c1ccccc1 [Compound 53, N-[(1Z)-2-phenyl-1-[[(phenylmethyl)amino]carbonyl]ethenyl]benzamide] | 13% | 58% | 0% | 75% | 75% | 5% | 16% | 23% | 5% | 16% | 8% | 18% | 169 to 171 °C | 55% | 33% | inhibition at 50 µg/mL (Physalospora piricola; read-out: Fungicidal activity (inhibition) against PP: Physalospora piricola): < 20%; inhibition at 50 µg/mL ([3]; read-out: Fungicidal activity (inhibition) against PI: Phytophthora infestans (Mont) de Bary): < 25%; inhibition at 50 µg/mL (Botrytis cinerea; [16]): ≤ 20%; inhibition at 50 µg/mL (wheat Gibberella zeae; [17]): < 45%; inhibition at 50 µg/mL (Rhizoctonia cerealis; read-out: Fungicidal activity (inhibition) against RC: Rhizoctonia cerealis): < 20%; inhibition at 50 µg/mL (Alternaria solani; read-out: Fungicidal activity (inhibition) against AS: Alternaria solani): < 30%; inhibition at 50 µg/mL (Pellicularia sasakii; read-out: Fungicidal activity (inhibition) against PS: Pellicularia sasakii): < 30%; inhibition at 50 µg/mL (Cercospora arachidicola; read-out: Fungicidal activity (inhibition) against CA: Cercospora arachidicola): < 25%
Cc1snnc1/C=C(\NC(=O)c1ccccc1)C(=O)O [Compound 70, (Z)-2-benzoylamino-3-[4-(5-methyl-1,2,3-thiadiazol)]propenoic acid] | 0% | 3% | 37% | – | 44% | 13% | 12% | 21% | 18% | 14% | 14% | 24% | 190 to 192 °C | 37% | 17% | –
O=C(N/C(=C\c1c[nH]cn1)C(=O)N1CCC(O)(c2ccc(Br)cc2)CC1)c1ccccc1 [Compound 26, (Z)-N-[1-[[4-(4-bromophenyl)-4-hydroxy-1-piperidinyl]carbonyl]-2-(4-imidazole)ethenyl]benzamide] | 7% | 21% | 1% | 60 to 80% | 78% | 19% | 14% | 2% | 16% | 21% | 0% | 16% | 176 to 178 °C | 0% | 1% | inhibition at 50 µg/mL (wheat Gibberella zeae; [17]): 77%
COC(=O)CCCNC(=O)/C(=C/c1ccccc1)NC(=O)c1ccccc1 [Compound 36, (Z)-N-[1-[[1-(4-methylbutanoate)amino]carbonyl]-2-phenylethenyl]benzamide] | 0% | 0% | 41% | – | 50% | 2% | 10% | 0% | 16% | 21% | 0% | 10% | 110 to 111 °C | 36% | 13% | –
O=C(N/C(=C\c1ccco1)C(=O)N1CCC(O)(c2ccc(Br)cc2)CC1)C1CCCCC1 [Compound 63, (Z)-N-[1-[[4-(4-bromophenyl)-4-hydroxy-1-piperidinyl]carbonyl]-2-(2-furanyl)ethenyl]cyclohexanecarboxamide] | 18% | 50% | 9% | – | 44% | 21% | 35% | 57% | 21% | 29% | 14% | 24% | 121 to 123 °C | 36% | 53% | –
O=C(N/C(=C\c1ccccc1)C(=O)N1CCC(O)(c2ccc(Br)cc2)CC1)c1ccc(Cl)cc1 [Compound 7, (Z)-N-[1-[[4-(4-bromophenyl)-4-hydroxy-1-piperidinyl]carbonyl]-2-phenylethenyl]-4-chlorobenzamide] | 12% | 31% | 1% | – | 44% | 16% | 21% | 71% | 18% | 25% | 20% | 18% | 193 to 194 °C | 39% | 50% | inhibition at 50 µg/mL (wheat Gibberella zeae; [17]): 71%
O=C(OCc1ccc(Br)cc1)/C(=C/c1ccccc1)NC(=O)c1ccccc1 [Compound 61, N-[(1Z)-2-phenyl-1-[(4-bromophenymethoxyl)carbonyl]ethenyl]benzamide] | 6% | 13% | 0% | – | 44% | 11% | 18% | 29% | 13% | 25% | 9% | 12% | 168 to 170 °C | 0% | 16% | –
CNC(=O)/C(=C/c1csc(C2CCN(C(=O)OC(C)(C)C)CC2)n1)NC(=O)c1ccccc1 [Compound 41, (Z)-N-[1-[(methylamino)carbonyl]-2-[4-[2-[4-(1-Boc-piperidine)]thiazol]]ethenyl]benzamide] | 37% | 0% | 2% | – | 96% | 39% | 52% | 34% | 33% | 54% | 33% | 35% | 107 to 109 °C | 0% | 30% | EC90 (Sclerotinia sclerotiorum): 375 µg/mL (≈ 796 µM); inhibition at 50 µg/mL (Botrytis cinerea; [16]): 52%
O=C(NCc1cccs1)/C(=C/c1ccccc1)NC(=O)c1ccccc1 [Compound 58, N-[(1Z)-2-phenyl-1-[[(2-thienylmethyl)amino]carbonyl]ethenyl]benzamide] | 9% | 0% | 2% | – | 47% | 21% | 18% | 29% | 18% | 21% | 14% | 6% | 210 to 212 °C | 17% | 0% | –
